Source: patent US20100240763A1, “Method to Determine and Biomarker for Treatment Efficacy With Ssri, Snri, and Sari Antidepressants” (priority 2006, published 2010)
“Also recorded” adds a separate entry of the source.

How the values were obtained:
[1] = tested on: BDNF^Met/Met, BDNF^+/− and wild-type mice; assay: open-field test after long-term fluoxetine; assay type: in vivo; settings: fluoxetine orally 18 mg/kg of body weight per day for 21 days vs vehicle
Description: In the open-field test, percentage of time spent in the center in the absence (H2O) or presence of fluoxetine (drug) treatment was measured. […] All results are presented as means±SEM determined from analysis of eight mice per genotype (*P<0.05, **P<0.01). […] BDNF^Met/Met were treated orally with fluoxetine (18 mg/kg of body weight per day) or vehicle for 21 days before assessment in two tests: open field and novelty-induced hypophagia.

[2] = tested on: transgenic mice homozygous for the G196A polymorphism and control wild-type mice; assay: anxiety-related behaviors in conflict/stress tests (open field, elevated plus maze, novelty induced hypophagia) after chronic fluoxetine; assay type: in vivo; settings: chronic administration
Description: Second, we determined that these mice have increased anxiety-related behaviors as assessed by 3 conflict/stress tests (open field, elevated plus maze, novelty induced hypophagia). These tests for anxiety differ from those used in human studies in that the animals' anxiety-related behaviors are assessed after placement in a stressful environment.

## CNCCC(Oc1ccc(C(F)(F)F)cc1)c1ccccc1 (stereo not drawn) [fluoxetine]
[1]; BDNF^Met/Met mice
  entries into the center: blunted response
[1]; BDNF^Met/Met mice, 18 mg/kg/day
  time spent in the center: blunted response; also recorded: Decreased response
[1]; wild-type mice
  entries into the center: increase in entries into the center
  time spent in the center: significant increase
[2]; control wild-type mice
  anxiety-related behaviors: could robustly diminish
[2]; transgenic mice homozygous for the G196A polymorphism
  reversal of anxiety-related behaviors: could not reverse
